US20260209234A1, “SUBSTITUTED DIHYDROPYRROLO[3,4-D]PYRIMIDINE COMPOUNDS AND THEIR USE IN TREATING MEDICAL CONDITIONS” (Karuna Therapeutics, Inc., priority 2022, published 2026)

Key:
rM4 receptors = target: T1, rM4 receptors (Rattus norvegicus, UniProt P08485); experiment: Rat M4 PAM pERK assay; format: cell-based; details: CHO cells expressing rM4; EC20 of acetylcholine (10 nM final); TR-FRET
T1 construct: expressed in transfected cells; host or cells: CHO cells
T1 sequence (P08485 1-478): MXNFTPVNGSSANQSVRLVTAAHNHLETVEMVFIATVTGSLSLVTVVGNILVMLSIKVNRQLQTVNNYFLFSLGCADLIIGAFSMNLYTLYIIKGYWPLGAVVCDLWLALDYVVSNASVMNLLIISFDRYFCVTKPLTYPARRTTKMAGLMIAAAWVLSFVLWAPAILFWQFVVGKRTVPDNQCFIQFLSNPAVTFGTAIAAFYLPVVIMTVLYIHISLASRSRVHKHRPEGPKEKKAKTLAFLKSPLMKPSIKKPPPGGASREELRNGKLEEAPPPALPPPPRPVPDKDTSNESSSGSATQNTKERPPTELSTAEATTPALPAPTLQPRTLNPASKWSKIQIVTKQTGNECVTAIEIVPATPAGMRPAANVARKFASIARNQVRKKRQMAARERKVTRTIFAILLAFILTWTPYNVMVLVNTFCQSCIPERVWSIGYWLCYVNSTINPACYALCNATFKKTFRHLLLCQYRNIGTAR

human M4 receptor = target: T2, human M4 receptor (Homo sapiens, UniProt P08173); experiment: M4 GTPγS PAM assay; format: biochemical; details: membranes of CHO-K1 cells stably expressing human M4; EC20 acetylcholine 40 nM; 35S-GTP
T2 construct: expressed in transfected cells
T2 sequence (P08173 1-479): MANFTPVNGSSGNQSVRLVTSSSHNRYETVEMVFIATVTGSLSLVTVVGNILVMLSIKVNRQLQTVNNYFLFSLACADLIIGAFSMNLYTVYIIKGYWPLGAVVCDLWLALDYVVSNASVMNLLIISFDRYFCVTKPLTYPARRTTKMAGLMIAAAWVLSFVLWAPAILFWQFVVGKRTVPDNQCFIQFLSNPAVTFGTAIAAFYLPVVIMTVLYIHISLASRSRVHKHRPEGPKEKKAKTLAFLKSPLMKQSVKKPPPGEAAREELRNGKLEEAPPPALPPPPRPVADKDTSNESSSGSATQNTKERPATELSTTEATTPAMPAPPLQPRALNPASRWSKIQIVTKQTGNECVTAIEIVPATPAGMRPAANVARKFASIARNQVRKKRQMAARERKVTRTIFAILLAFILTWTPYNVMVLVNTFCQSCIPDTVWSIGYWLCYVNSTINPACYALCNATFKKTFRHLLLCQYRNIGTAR
In short: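 CHO-K1 membranes stably expressing human M4, preincubated with compound and 0.1 μM GDP (final) in 20 mM HEPES, 10 mM MgCl2, 100 mM NaCl, pH 7.4, then EC20 acetylcholine (40 nM final). 35S-GTPγS binding 1 h at room temperature, filtration and scintillation counting.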

EC50 (rM4 receptors)	EC50 (human M4 receptor)	Structure (SMILES)
0.1 to 0.5 µM	≤ 0.1 µM	COc1nc(C#N)nc2c1C(C)N(C(=O)CC1CN(c3ccnc(C(F)(F)F)c3)C1)C2 (single isomer, unassigned) [Compound I-6, 4-Methoxy-5-methyl-6-(2-(1-(2-(trifluoromethyl)pyridin-4-yl)azetidin-3-yl)acetyl)-6,7-dihydro-5H-pyrrolo[3,4-d]pyrimidine-2-carbonitrile]
0.1 to 0.5 µM	≤ 0.1 µM	COc1nc(C)nc2c1C(C)N(C(=O)CC1CN(c3ccnc(C(F)(F)F)c3)C1)C2 (single isomer, unassigned) [Compound I-52, 1-(4-Methoxy-2,5-dimethyl-5,7-dihydro-6H-pyrrolo[3,4-d]pyrimidin-6-yl)-2-(1-(2-(trifluoromethyl)pyridin-4-yl)azetidin-3-yl)ethan-1-one]
